Among the data in patent publication US6566373B2, “Protease inhibitors” (SmithKline Beecham Corporation, priority 1997, dated 2003) are Ki and melting point values, retold here.

Counter-ions that a name gives are not always drawn. Where only a bound is given, the exact number is not on record here.

Data set [1] has as its target T1, cathepsin K (Homo sapiens, UniProt P43235).
T1 sequence (P43235 115-329): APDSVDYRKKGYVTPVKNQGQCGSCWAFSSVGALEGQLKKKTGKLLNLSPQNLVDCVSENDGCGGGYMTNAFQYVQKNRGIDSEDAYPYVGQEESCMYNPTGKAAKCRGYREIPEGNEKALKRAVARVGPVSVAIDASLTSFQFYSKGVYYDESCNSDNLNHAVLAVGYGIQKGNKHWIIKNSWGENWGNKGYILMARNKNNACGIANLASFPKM
Description: Cathepsin K inhibition (progress curve method, fluorogenic substrate Cbz-Phe-Arg-AMC). In kind it is biochemical. Particulars: human recombinant enzyme, 100 mM Na acetate pH 5.5. The protocol: Determination of Cathepsin K Proteolytic Catalytic Activity
All assays for cathepsin K were carried out with human recombinant enzyme. Standard assay conditions for the determination of kinetic constants used a fluorogenic peptide substrate, typically Cbz-Phe-Arg-AMC, and were determined in 100 mM Na acetate at pH 5.5 containing 20 mM cysteine and 5 mM EDTA. Stock substrate solutions were prepared at concentrations of 10 or 20 mM in DMSO with 20 μM final substrate concentration in the assays. All assays contained 10% DMSO. […] All assays were conducted at ambient temperature. Product fluorescence (excitation at 360 nm; emission at 460 nm) was monitored with a Perceptive Biosystems Cytofluor II fluorescent plate reader. […]
Potential inhibitors were evaluated using the progress curve method. […] For those compounds whose progress curves were linear, apparent inhibition constants (Ki,app) were calculated according to equation 1 (Brandt et al., Biochemitsry, 1989, 28, 140): […]
[AMC]=vSSt+(v0−vSS)[1−exp (−kobst)]/kobs (2) where [AMC] is the concentration of product formed over time t, v0 is the initial reaction velocity, and vSS is the final steady state rate. Values for kobs were then analyzed as a linear function of inhibitor concentration to generate an apparent second order rate constant (kobs/inhibitor concentration or kobs/[I]) describing the time-dependent inhibition. […]

As a reminder, the Ki is the dissociation constant of the complex between target and ligand, obtained from inhibition or displacement. What is called melting point is the temperature, or range, at which the solid turns liquid.

With `CC(C)C[C@H](NS(=O)(=O)c1cccc2cccnc12)C(=O)NC1COCC1=O` (mixture of isomers) [Example 7, 4-(R,S)-Amino-N-[(8-quinolinesulfonyl)-S-leucine]-tetrahydrofuran-3-one], the Ki in data set [1] is > 10 µM. `CC(C)C[C@H](NS(=O)(=O)c1cccc2cccnc12)C(=O)NC1COCC1=O` (mixture of isomers) (as salt: HCl) [Example 7, 4-(R,S)-Amino-N-[(8-quinolinesulfonyl)-S-leucine]-tetrahydrofuran-3-one] came in with a melting point of 98 °C.
